Where “and” joins values, the source holds several entries; their conditions need not be identical. Equal values may be shown once. Inconclusive results and toxic doses are left out. Rule for the calls: active = survival T/C of 150% or more; inactive = T/C below 125% in these data.
Test system: CD2F1 mice, L1210 leukemia ip, survival T/C
Assay: NCI In Vivo Anticancer Drug Screen. Data for tumor model L1210 Leukemia (intraperitoneal) in CD2F1 (CDF1) mice
Details: endpoint: mean survival time, higher = longer survival
Method in brief: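 Antitumor effect is scored in animals hosting a serially transplanted tumor. Values compare compound-dosed animals against vehicle-only controls as a simple quotient.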

[1] = dose: 100.0 mg/kg/injection, schedule: Q04DX003 (ip), vehicle: saline with Tween-80
[2] = dose: 200.0 mg/kg/injection, schedule: Q01DX009 (ip), vehicle: saline with Tween-80
[3] = dose: 200.0 mg/kg/injection, schedule: Q04DX003 (ip), vehicle: saline with Tween-80
[4] = dose: 400.0 mg/kg/injection, schedule: Q01DX009 (ip), vehicle: saline with Tween-80
[5] = dose: 400.0 mg/kg/injection, schedule: Q04DX003 (ip), vehicle: saline with Tween-80
[6] = dose: 25.0 mg/kg/injection, schedule: Q04DX003 (ip), vehicle: saline with Tween-80
[7] = dose: 50.0 mg/kg/injection, schedule: Q04DX003 (ip), vehicle: saline with Tween-80
[8] = dose: 100.0 mg/kg/injection, schedule: Q01DX001 (ip), vehicle: saline with Tween-80
[9] = dose: 100.0 mg/kg/injection, schedule: Q01DX009 (ip), vehicle: saline with Tween-80
[10] = dose: 200.0 mg/kg/injection, schedule: Q01DX001 (ip), vehicle: saline with Tween-80
[11] = dose: 400.0 mg/kg/injection, schedule: Q01DX001 (ip), vehicle: saline with Tween-80

Measured: T/C

Cc1cc(Cc2ccc(N=C=O)c(C)c2)ccc1N=C=O
inactive: [1] 103 % of control | [2] 89 % of control | [3] 111 % of control | [4] 89 % of control | [5] 106 % of control

Nc1ccc(N)c(N)n1
inactive: dose: 6.25 mg/kg/injection, schedule: Q01DX009 (ip), vehicle: saline sonified 105 % of control | dose: 12.5 mg/kg/injection, schedule: Q01DX009 (ip), vehicle: saline sonified 96 % of control | dose: 25.0 mg/kg/injection, schedule: Q01DX009 (ip), vehicle: saline sonified 108 % of control

CCOC(=O)/C(C)=C/C(O)CO (configuration not stated)
inactive: dose: 100.0 mg/kg/injection, schedule: Q01DX009 (ip), vehicle: saline sonified 96 % of control | [1] 105 % of control | dose: 200.0 mg/kg/injection, schedule: Q01DX009 (ip), vehicle: saline sonified 95 % of control | [3] 98 % of control | [5] 96 % of control

Clc1c(CI)ccc(CI)c1Cl
inactive: [6] 95 % of control | [7] 97 % of control | [1] 102 % of control

COc1ccc2c(c1)CCC(c1ccccc1)=C2c1ccc(OCCN2CCCC2)cc1
inactive: dose: 6.0 mg/kg/injection, schedule: Q01DX009 (ip), vehicle: saline with Tween-80 103 % of control | dose: 12.0 mg/kg/injection, schedule: Q01DX009 (ip), vehicle: saline with Tween-80 106 % of control | dose: 24.0 mg/kg/injection, schedule: Q01DX009 (ip), vehicle: saline with Tween-80 101 % of control | dose: 40.0 mg/kg/injection, schedule: Q04DX003 (ip), vehicle: saline with Tween-80 104 % of control | dose: 80.0 mg/kg/injection, schedule: Q04DX003 (ip), vehicle: saline with Tween-80 101 % of control

OCC1OC(n2ccn(C3OC(CO)C(O)C3O)c2=S)C(O)C1O (configuration not stated)
inactive: dose: 12.5 mg/kg/injection, schedule: Q01DX005 (ip), vehicle: water 98 % of control | dose: 25.0 mg/kg/injection, schedule: Q01DX005 (ip), vehicle: water 106 % of control | dose: 50.0 mg/kg/injection, schedule: Q01DX005 (ip), vehicle: water 96 % of control | dose: 100.0 mg/kg/injection, schedule: Q01DX005 (ip), vehicle: water 98 % of control | dose: 200.0 mg/kg/injection, schedule: Q01DX005 (ip), vehicle: water 102 % of control

CC12CCC(O)CC1CCC1C2CCC2(C)C(C3=CC(=O)OC3)CCC12O (configuration not stated)
inactive: dose: 12.5 mg/kg/injection, schedule: Q04DX003 (ip), vehicle: Klucel (hydroxypropylcellulose) (HPC) 92 % of control | dose: 25.0 mg/kg/injection, schedule: Q04DX003 (ip), vehicle: Klucel (hydroxypropylcellulose) (HPC) 100 % of control | dose: 50.0 mg/kg/injection, schedule: Q04DX003 (ip), vehicle: Klucel (hydroxypropylcellulose) (HPC) 92 % of control

NC(=O)c1cn(C2OC(CO)C3OC32)c2ncnc(NC(=O)c3ccccc3)c12 (configuration not stated)
inactive: dose: 25.0 mg/kg/injection, schedule: Q01DX009 (ip), vehicle: distilled water + Tween-80 90 % of control | dose: 50.0 mg/kg/injection, schedule: Q01DX009 (ip), vehicle: distilled water + Tween-80 93 % of control | dose: 100.0 mg/kg/injection, schedule: Q01DX009 (ip), vehicle: distilled water + Tween-80 93 % of control | dose: 200.0 mg/kg/injection, schedule: Q01DX009 (ip), vehicle: distilled water + Tween-80 97 % of control | dose: 400.0 mg/kg/injection, schedule: Q01DX009 (ip), vehicle: distilled water + Tween-80 100 % of control

CC([NH-])C(C)[NH-].CC([NH-])C(C)[NH-].[Cl][Co][Cl] (configuration not stated)
inactive: dose: 100.0 mg/kg/injection, schedule: Q04DX002 (ip), vehicle: saline 103 % of control

Cc1c(C)c(OC(=O)c2ccccc2)c(Br)c(C)c1OC(=O)c1ccccc1
inactive: [8] 91 % of control | [9] 100 % of control | [10] 100 % of control | [2] 100 % of control | [11] 100 % of control | [4] 100 % of control

CC(O)CN1CCN(CC(C)O)CC1.[I][Pt+2][I] (configuration not stated)
inactive: [6] 102 % of control | [7] 109 % of control | [1] 95 % of control | [3] 104 % of control | [5] 100 % of control

COC(=O)CC1(C(=O)OC)Nc2ccccc2C(=O)O1 (configuration not stated)
inactive: [8] 94 % of control | [10] 96 % of control | [11] 96 % of control

CCCCCCCCCCCCCCCCCC[N+]1(CC)CCCCC1
inactive: dose: 0.09 mg/kg/injection, schedule: Q01DX009 (ip), vehicle: saline 98 % of control | dose: 0.19 mg/kg/injection, schedule: Q01DX009 (ip), vehicle: saline 98 % of control | dose: 0.39 mg/kg/injection, schedule: Q01DX009 (ip), vehicle: saline 101 % of control | dose: 0.78 mg/kg/injection, schedule: Q01DX009 (ip), vehicle: saline 98 % of control

Cc1ccc(S(=O)(=O)C[n+]2ccccc2N)cc1
inactive: dose: 25.0 mg/kg/injection, schedule: Q04DX002 (ip), vehicle: saline with Tween-80 102 % of control | dose: 50.0 mg/kg/injection, schedule: Q04DX002 (ip), vehicle: saline with Tween-80 95 % of control | dose: 100.0 mg/kg/injection, schedule: Q04DX002 (ip), vehicle: saline with Tween-80 93 % of control and 95 % of control

CCOS(=O)(=O)CCCCS(=O)(=O)OCC
inactive: dose: 10.0 mg/kg/injection, schedule: Q01DX009 (ip), vehicle: Klucel (hydroxypropylcellulose) (HPC) 104 % of control | dose: 20.0 mg/kg/injection, schedule: Q01DX009 (ip), vehicle: Klucel (hydroxypropylcellulose) (HPC) 98 % of control | dose: 40.0 mg/kg/injection, schedule: Q01DX009 (ip), vehicle: Klucel (hydroxypropylcellulose) (HPC) 107 % of control

CC(=O)Nc1ccc(-c2c(NCCO)ncc3ccccc23)cc1
inactive: dose: 25.0 mg/kg/injection, schedule: Q04DX003 (ip), vehicle: other 104 % of control | dose: 50.0 mg/kg/injection, schedule: Q04DX003 (ip), vehicle: other 98 % of control | dose: 100.0 mg/kg/injection, schedule: Q04DX003 (ip), vehicle: other 98 % of control | dose: 200.0 mg/kg/injection, schedule: Q04DX003 (ip), vehicle: other 104 % of control

Cc1ccccc1OCC(=O)O
inactive: dose: 50.0 mg/kg/injection, schedule: Q01DX009 (ip), vehicle: saline 104 % of control | dose: 100.0 mg/kg/injection, schedule: Q01DX009 (ip), vehicle: saline 101 % of control | dose: 200.0 mg/kg/injection, schedule: Q01DX009 (ip), vehicle: saline 93 % of control

O=S(CS(=O)c1ccccc1)c1ccccc1 (configuration not stated)
inactive: [1] 100 % of control | [3] 109 % of control | [5] 105 % of control

CCOC(=O)c1cccc(N(CCOS(C)(=O)=O)CCOS(C)(=O)=O)c1
inactive: dose: 2.0 mg/kg/injection, schedule: Q01DX010 (ip), vehicle: saline 100 % of control | dose: 4.0 mg/kg/injection, schedule: Q01DX010 (ip), vehicle: saline 106 % of control | dose: 8.0 mg/kg/injection, schedule: Q01DX010 (ip), vehicle: saline 119 % of control | dose: 16.0 mg/kg/injection, schedule: Q01DX010 (ip), vehicle: saline 121 % of control | dose: 50.0 mg/kg/injection, schedule: Q01DX001 (ip), vehicle: saline 98 % of control | dose: 100.0 mg/kg/injection, schedule: Q01DX001 (ip), vehicle: saline 101 % of control | dose: 200.0 mg/kg/injection, schedule: Q01DX001 (ip), vehicle: saline 101 % of control

CC(C)C1=CCC2C(=C1)CCC1C(C)(C(N)=O)CCCC21C (configuration not stated)
inactive: [1] 95 % of control | [3] 88 % of control | [5] 90 % of control

CCOC(=O)CC(=O)c1ccc(C)cc1
inactive: [9] 96 % of control | [2] 105 % of control | [4] 89 % of control
